# What was measured:
# Assay in all cases: 33PanQinase activity assay
# Assay type in all cases: biochemical
# DDR2 = target: T1, DDR2 (Homo sapiens, UniProt Q16832); settings: for Residual activity: singlicate
# T1 sequence (Q16832 22-855): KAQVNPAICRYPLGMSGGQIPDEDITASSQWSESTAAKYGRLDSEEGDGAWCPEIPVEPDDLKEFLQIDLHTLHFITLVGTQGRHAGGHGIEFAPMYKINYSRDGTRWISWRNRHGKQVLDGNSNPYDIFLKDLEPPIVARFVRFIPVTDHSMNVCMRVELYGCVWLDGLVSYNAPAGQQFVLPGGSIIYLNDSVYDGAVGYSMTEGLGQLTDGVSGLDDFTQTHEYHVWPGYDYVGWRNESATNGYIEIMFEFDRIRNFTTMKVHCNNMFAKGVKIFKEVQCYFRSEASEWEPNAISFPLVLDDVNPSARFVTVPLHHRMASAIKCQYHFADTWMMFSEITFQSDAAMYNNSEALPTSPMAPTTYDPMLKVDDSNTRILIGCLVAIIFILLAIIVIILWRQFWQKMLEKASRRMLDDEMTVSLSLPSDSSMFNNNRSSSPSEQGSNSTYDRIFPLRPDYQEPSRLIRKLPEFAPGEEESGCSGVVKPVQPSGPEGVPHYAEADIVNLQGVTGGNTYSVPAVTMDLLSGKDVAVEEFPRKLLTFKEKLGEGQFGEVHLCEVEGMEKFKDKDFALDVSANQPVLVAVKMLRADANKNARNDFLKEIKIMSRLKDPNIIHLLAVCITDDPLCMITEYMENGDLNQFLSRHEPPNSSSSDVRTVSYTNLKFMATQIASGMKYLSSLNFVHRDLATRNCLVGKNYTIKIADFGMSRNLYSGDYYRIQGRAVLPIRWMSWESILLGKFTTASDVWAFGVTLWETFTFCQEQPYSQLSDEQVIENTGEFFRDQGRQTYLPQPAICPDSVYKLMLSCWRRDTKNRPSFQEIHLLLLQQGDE
# Excerpt: (§1) Table S4. Profiling of two compounds at two concentrations against 320 wild-type protein kinases; singlicate measurement; Residual activities (% of control).
# MAP4K4 = MAP4K4 (Homo sapiens, UniProt O95819); settings: for MAP4K4 inhibition: 10 μM; for Residual activity: singlicate
# Excerpt: as §1
# RIPK2 = RIPK2 (Homo sapiens, UniProt O43353); settings: for Residual activity, RIPK2: kinase RIPK2, singlicate
# Excerpt: as §1
# LCK = LCK (Homo sapiens, UniProt P06239); settings: for Residual activity: LCK, singlicate
# Excerpt: as §1
# PIM1 = PIM1 (Homo sapiens, UniProt P11309); settings: for Residual activity: singlicate
# Excerpt: as §1
# EPHA6 = target: T2, EPHA6 (Homo sapiens, UniProt Q9UF33); settings: for Residual activity: singlicate
# T2 sequence (Q9UF33 23-1036): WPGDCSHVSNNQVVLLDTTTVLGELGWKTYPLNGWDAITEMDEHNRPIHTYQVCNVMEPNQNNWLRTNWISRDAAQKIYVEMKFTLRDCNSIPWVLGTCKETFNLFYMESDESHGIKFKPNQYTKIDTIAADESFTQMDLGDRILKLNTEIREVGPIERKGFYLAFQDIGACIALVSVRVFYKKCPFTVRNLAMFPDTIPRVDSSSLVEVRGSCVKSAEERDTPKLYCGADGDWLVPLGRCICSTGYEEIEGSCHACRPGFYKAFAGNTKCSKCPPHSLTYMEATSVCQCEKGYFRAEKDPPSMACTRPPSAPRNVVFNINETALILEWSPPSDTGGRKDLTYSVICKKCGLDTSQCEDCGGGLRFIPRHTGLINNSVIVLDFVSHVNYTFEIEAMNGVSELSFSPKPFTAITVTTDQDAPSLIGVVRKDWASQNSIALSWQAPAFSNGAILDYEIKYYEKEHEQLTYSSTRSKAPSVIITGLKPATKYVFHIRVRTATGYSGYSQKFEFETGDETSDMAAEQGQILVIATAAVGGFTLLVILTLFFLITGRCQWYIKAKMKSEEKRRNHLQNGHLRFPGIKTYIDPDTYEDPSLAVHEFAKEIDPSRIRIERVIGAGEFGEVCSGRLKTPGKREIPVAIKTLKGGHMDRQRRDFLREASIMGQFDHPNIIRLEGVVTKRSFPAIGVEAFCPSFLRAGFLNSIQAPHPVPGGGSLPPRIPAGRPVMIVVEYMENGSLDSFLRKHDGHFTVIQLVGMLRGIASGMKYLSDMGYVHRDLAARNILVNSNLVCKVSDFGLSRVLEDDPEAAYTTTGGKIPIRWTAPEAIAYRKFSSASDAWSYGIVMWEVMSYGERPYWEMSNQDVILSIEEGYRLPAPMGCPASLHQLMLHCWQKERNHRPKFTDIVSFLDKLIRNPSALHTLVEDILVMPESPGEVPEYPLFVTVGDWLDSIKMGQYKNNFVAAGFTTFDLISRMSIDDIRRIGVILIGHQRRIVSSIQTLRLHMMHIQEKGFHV
# Excerpt: as §1
# ERBB2 = ERBB2 (Homo sapiens, UniProt P04626); settings: for Residual activity: singlicate
# Excerpt: as §1
# MKNK1 = MKNK1 (Homo sapiens, UniProt Q9BUB5); settings: for Residual activity: singlicate
# Excerpt: as §1
# ERBB4 = ERBB4 (Homo sapiens, UniProt Q15303); settings: for Residual activity: singlicate
# Excerpt: as §1
# Chain of RIPK2 (O43353 whole entry): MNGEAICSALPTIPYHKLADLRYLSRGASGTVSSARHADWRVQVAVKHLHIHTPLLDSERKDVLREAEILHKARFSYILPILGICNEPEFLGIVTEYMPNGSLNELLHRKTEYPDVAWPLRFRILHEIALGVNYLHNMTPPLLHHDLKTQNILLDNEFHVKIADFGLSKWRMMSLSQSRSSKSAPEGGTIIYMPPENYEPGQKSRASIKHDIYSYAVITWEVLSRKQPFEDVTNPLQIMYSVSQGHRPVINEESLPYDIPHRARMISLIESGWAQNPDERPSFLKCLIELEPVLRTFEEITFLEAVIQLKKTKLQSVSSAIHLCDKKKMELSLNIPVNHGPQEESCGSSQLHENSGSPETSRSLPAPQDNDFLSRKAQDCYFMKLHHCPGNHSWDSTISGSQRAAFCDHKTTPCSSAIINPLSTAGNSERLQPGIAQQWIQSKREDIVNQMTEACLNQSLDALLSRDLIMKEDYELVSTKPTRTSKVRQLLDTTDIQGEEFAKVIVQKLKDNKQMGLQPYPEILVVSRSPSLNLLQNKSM
# Chain of LCK (P06239 whole entry): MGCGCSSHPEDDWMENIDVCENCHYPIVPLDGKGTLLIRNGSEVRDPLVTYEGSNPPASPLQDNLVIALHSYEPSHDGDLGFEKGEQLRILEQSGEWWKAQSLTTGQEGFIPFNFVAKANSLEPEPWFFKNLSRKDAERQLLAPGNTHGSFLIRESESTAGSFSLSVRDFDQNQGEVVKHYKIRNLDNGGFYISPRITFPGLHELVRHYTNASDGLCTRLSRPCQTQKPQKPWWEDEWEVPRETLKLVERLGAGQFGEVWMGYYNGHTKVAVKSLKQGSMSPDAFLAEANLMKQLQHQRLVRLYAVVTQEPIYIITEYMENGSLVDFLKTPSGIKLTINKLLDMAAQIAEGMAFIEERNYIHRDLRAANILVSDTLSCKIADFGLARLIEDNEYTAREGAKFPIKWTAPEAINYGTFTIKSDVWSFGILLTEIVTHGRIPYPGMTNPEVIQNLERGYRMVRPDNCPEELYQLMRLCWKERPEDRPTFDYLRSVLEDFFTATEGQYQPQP
# Chain of MKNK1 (Q9BUB5 whole entry): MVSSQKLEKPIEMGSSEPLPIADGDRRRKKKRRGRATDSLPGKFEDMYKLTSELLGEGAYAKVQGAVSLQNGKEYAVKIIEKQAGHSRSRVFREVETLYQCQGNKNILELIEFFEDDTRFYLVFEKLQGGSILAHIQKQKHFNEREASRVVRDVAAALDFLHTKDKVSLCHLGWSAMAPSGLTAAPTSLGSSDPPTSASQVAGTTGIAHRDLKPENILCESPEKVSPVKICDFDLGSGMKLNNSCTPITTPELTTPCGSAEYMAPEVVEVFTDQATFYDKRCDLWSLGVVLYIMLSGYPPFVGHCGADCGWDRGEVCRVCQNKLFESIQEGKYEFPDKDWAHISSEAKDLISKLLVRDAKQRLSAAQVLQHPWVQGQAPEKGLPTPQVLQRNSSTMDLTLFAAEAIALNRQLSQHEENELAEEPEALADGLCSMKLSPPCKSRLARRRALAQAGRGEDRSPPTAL
# Chain of ERBB2 (P04626 23-1255): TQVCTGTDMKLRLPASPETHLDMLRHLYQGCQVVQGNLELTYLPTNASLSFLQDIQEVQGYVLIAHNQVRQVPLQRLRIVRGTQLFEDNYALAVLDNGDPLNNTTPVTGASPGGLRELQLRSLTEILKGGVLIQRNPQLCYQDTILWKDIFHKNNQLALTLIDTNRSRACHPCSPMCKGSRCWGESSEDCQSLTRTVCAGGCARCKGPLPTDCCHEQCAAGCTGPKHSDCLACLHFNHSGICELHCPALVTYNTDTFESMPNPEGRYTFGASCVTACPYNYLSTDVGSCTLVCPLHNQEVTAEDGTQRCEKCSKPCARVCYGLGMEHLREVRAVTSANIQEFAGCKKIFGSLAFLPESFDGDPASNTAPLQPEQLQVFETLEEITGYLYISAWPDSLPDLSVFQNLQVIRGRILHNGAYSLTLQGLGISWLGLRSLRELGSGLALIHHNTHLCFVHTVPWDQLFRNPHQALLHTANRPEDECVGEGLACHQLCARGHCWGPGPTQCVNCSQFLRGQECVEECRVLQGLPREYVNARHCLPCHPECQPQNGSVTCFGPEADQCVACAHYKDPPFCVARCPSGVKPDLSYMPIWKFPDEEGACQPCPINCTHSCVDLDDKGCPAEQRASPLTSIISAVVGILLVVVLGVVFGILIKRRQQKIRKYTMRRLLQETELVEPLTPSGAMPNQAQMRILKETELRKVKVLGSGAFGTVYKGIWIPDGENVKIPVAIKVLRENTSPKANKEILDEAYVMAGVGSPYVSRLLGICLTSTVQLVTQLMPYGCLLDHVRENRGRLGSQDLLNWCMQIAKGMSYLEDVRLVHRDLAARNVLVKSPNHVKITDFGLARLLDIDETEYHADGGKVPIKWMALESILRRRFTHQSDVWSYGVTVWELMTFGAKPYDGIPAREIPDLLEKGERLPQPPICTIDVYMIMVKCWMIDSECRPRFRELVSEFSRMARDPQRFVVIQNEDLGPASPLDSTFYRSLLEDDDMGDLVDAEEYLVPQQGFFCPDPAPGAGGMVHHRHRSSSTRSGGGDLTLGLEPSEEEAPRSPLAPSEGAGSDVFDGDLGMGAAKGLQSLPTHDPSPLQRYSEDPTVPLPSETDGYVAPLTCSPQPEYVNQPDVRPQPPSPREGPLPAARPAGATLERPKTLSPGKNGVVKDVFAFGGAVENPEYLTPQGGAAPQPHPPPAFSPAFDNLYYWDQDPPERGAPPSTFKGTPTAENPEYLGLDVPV
# Chain of MAP4K4 (O95819 whole entry): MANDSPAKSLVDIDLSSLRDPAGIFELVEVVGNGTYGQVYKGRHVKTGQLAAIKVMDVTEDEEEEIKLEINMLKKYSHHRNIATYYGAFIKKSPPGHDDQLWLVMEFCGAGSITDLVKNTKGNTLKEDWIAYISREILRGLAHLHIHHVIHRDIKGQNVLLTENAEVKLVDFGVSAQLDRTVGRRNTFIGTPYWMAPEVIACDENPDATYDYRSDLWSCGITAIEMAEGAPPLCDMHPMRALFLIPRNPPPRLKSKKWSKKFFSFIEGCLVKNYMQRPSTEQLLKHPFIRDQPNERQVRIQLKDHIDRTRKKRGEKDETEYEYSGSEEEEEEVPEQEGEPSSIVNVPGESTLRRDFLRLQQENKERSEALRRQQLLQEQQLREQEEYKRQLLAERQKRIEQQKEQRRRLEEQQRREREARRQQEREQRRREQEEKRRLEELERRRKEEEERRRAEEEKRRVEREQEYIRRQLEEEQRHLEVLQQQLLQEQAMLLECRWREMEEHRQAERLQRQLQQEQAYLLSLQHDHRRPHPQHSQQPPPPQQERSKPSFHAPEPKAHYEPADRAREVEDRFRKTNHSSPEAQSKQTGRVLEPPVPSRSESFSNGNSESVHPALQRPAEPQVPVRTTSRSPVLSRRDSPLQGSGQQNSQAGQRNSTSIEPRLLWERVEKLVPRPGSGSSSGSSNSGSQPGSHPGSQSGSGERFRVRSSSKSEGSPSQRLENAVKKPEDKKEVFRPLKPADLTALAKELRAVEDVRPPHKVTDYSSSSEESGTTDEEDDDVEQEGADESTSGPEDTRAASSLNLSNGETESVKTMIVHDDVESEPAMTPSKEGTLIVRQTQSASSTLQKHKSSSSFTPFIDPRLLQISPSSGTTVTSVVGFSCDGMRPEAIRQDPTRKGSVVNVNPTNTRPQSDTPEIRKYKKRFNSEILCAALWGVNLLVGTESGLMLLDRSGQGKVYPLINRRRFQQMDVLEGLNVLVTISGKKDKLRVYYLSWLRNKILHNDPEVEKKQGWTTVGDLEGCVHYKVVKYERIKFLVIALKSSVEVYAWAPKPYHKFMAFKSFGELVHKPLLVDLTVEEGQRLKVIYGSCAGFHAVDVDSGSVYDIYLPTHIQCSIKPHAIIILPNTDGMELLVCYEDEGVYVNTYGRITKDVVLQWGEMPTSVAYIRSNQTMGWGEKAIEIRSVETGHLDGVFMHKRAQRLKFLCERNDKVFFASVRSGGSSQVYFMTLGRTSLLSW
# Chain of PIM1 (P11309 whole entry): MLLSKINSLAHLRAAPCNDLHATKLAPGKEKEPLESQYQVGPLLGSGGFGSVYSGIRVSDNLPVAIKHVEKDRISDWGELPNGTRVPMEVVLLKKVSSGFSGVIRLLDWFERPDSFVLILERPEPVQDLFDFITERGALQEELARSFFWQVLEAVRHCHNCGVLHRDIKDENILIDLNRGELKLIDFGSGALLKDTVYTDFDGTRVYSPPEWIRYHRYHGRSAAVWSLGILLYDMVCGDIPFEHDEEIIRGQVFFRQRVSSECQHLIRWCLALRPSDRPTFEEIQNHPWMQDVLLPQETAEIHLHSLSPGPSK
Structure (SMILES),"Residual activity (DDR2; DDR2, 1.0E-06 M)","Residual activity (DDR2; DDR2, 1.0E-07 M)",MAP4K4 inhibition (MAP4K4) [%],"Residual activity (MAP4K4; MAP4K4, 1.0E-06 M)","Residual activity (MAP4K4; MAP4K4, 1.0E-07 M)","Residual activity, RIPK2 (RIPK2; assay conc. 1.0E-06 M)","Residual activity, RIPK2 (RIPK2; assay conc. 1.0E-07 M)",Residual activity (LCK; 1.0E-06 M),Residual activity (LCK; 1.0E-07 M),"Residual activity (PIM1; PIM1, 1.0E-06 M)","Residual activity (PIM1; PIM1, 1.0E-07 M)","Residual activity (EPHA6; EPHA6, 1.0E-06 M)","Residual activity (EPHA6; EPHA6, 1.0E-07 M)","Residual activity (ERBB2; ERBB2, 1.0E-06 M)","Residual activity (ERBB2; ERBB2, 1.0E-07 M)","Residual activity (MKNK1; MKNK1, 1.0E-06 M)","Residual activity (MKNK1; MKNK1, 1.0E-07 M)","Residual activity (ERBB4; ERBB4, 1.0E-06 M)","Residual activity (ERBB4; ERBB4, 1.0E-07 M)",other results
C#Cc1cc(Nc2ncnc3cc(I)ccc23)ccc1Cl [Compound 41],81 % of control,91 % of control,> 50,41 % of control,73 % of control,96 % of control,107 % of control,59 % of control,78 % of control,71 % of control,85 % of control,75 % of control,94 % of control,78 % of control,96 % of control,63 % of control,79 % of control,44 % of control,92 % of control,ERBB4 inhibition (ERBB4; 10 μM): > 50%
C#Cc1cc(Nc2ncnc3cc(OC)c(OC)cc23)ccc1Cl [Compound 45],35 % of control,87 % of control,> 50,48 % of control,87 % of control,13 % of control,59 % of control,36 % of control,94 % of control,38 % of control,73 % of control,35 % of control,89 % of control,11 % of control,44 % of control,30 % of control,63 % of control,7 % of control,34 % of control,DDR2 inhibition (DDR2; 10 μM): > 50%; RIPK2 inhibition (RIPK2; 10 μM): > 50%; LCK inhibition (LCK; 10 μM): > 50%; PIM1 inhibition (PIM1; 10 μM): > 50%; EPHA6 inhibition (EPHA6; 10 μM): > 50%; ERBB2 inhibition (ERBB2; 1 μM): moderate inhibition; MKNK1 inhibition (MKNK1; 10 μM): > 50%; ERBB4 inhibition (ERBB4; 1 μM): moderate inhibition

# — PMC9329436, “Optimization of the 4-anilinoquin(az)oline scaffold as epidermal growth factor receptor (EGFR) inhibitors for chordoma utilizing a toxicology profiling assay platform” (Scientific Reports, 2022)
